Experimental data published in US12668599B2, “Heterobifunctional compounds and methods of treating disease” (Halda Therapeutics OpCo, Inc., priority 2023, dated 2026).

Key:
[1] = test system: T-Rex 293 cell line SC3 cells lacking increased expression of androgen receptor protein; assay: Cellular growth inhibition, T-Rex 293 SC3 cells without doxycycline (CellTiter-Glo 2.0, 72 hours); type: cell-based; conditions: T-Rex 293 SC3 cells not exposed to doxycycline (no increased androgen receptor expression)
[2] = test system: T-Rex 293 cell line SC3 cells having increased expression of androgen receptor protein due to exposure to doxycycline; assay: Cellular growth inhibition, T-Rex 293 SC3 cells with doxycycline-induced androgen receptor (CellTiter-Glo 2.0, 72 hours); type: cell-based; conditions: for GI50: T-Rex 293 SC3 cells with 10 ng/ml doxycycline (increased androgen receptor expression), 72 hours, CellTiter-Glo 2.0
VCaP cells = assay: Cellular growth inhibition assay for VCaP cells (CellTiter-Glo 2.0, 72 hours); type: cell-based, human; conditions: for GI50: CellTiter-Glo 2.0

SMILES	GI50 ([1]; 72 h) [nM]	GI50 [2] [nM]	GI50 (VCaP cells; Homo sapiens, VCaP, 72 h) [nM]	GI50 [1] [nM]	GI50 (VCaP cells; 72 hours) [nM]	Ratio of GI50's ([2]; GI50 of the top compound in the pair divided by GI50 of the lower compound, T-Rex 293 SC3 cells with doxycycline-induced androgen receptor)	Ratio of GI50's (VCaP cells; GI50 of the top compound in the pair divided by GI50 of the lower compound)
COc1cc(O[C@H]2CC[C@H](NC(=O)c3ccc(N4CCC5(CCN(c6ccc(C7=N[C@@H](C)c8nnc(C)n8-c8sc(C)c(C)c87)cc6C(C)C)CC5)C4)nn3)CC2)ccc1C#N [Compound I-105, N-[4-(4-cyano-3-methoxy-phenoxy)cyclohexyl]-6-[8-[2-isopropyl-4-[(9S)-4,5,9,13-tetramethyl-3-thia1,8,11,12-tetrazatricyclo[8.3.0.0^2,6]trideca-2 (6),4,7,10,12-pentaen-7-yl]phenyl]-2,8-diazaspiro[4.5]decan-2-yl]pyridazine-3-carboxamide]	> 3000	< 500	500 to 1500	–	–	–	–
COc1cc(O[C@H]2CC[C@H](NC(=O)c3ccc(N4C[C@H]5CN(c6ccc(C7=N[C@@H](Cc8ncco8)c8nnc(C)n8-c8sc(C)c(C)c87)cc6)C[C@H]5C4)nn3)CC2)ccc1C#N [Compound I-106, 6-[(3aR,6aS)-2-[4-[(9S)-4,5,13-trimethyl-9-(oxazol-2-ylmethyl)-3-thia-1,8,11,12-tetrazatricyclo[8.3.0.0^2,6]trideca-2 (6),4,7,10,12-pentaen-7-yl]phenyl]-1,3,3a,4,6,6a-hexahydropyrrolo[3,4-c]pyrrol-5-yl]-N-[4-(4-cyano-3-methoxy-phenoxy)cyclohexyl]pyridazine-3-carboxamide]	< 500	< 500	< 500	–	–	–	–
COc1cc(O[C@H]2CC[C@H](NC(=O)c3ccc(N4CC(F)(F)C5(CCN(c6ccc(C7=N[C@@H](C)c8nnc(C)n8-c8sc(C)c(C)c87)cc6)CC5)C4)nn3)CC2)ccc1C#N [Compound I-107, N-[4-(4-cyano-3-methoxy-phenoxy)cyclohexyl]-6-[4,4-difluoro-8-[4-[(9S)-4,5,9,13-tetramethyl-3-thia-1,8,11,12-tetrazatricyclo[8.3.0.0^2,6]trideca-2 (6),4,7,10,12-pentaen-7-yl]phenyl]-2,8-diazaspiro[4.5]decan-2-yl]pyridazine-3-carboxamide]	< 500	< 500	< 500	–	–	–	–
COc1cc(O[C@H]2CC[C@H](NC(=O)c3ccc(-n4cc5c(c4)CN(c4ccc(C6=N[C@@H](C)c7nnc(C)n7-c7sc(C)c(C)c76)cc4)C5)nn3)CC2)ccc1C#N [Compound I-108]	< 500	< 500	< 500	–	–	–	–
COc1cc(O[C@H]2CC[C@H](NC(=O)c3ccc(N4CC5(CC(C#Cc6ccc(C7=NC(Cc8ncco8)c8nnc(C)n8-c8sc(C)c(C)c87)c(F)c6)C5)C4)nn3)CC2)ccc1C#N (some centres unmarked) [Compound I-112]	> 3000	< 500	< 500	–	–	–	–
COc1cc(O[C@H]2CC[C@H](NC(=O)c3ccc(N4CCC5(CCN(c6ccc(C7=N[C@@H](C)c8nnc(C)n8-c8sc(C)c(C)c87)cc6)CC5(F)F)C4)nn3)CC2)ccc1C#N (some centres unmarked) [Compound I-113]	< 500	< 500	< 500	–	–	–	–
COc1cc(O[C@H]2CC[C@H](NC(=O)c3ccc(N4CC5(CCC5)C5(CCN(c6ccc(C7=N[C@@H](C)c8nnc(C)n8-c8sc(C)c(C)c87)cc6)CC5)C4)nn3)CC2)ccc1C#N [Compound I-114]	< 500	< 500	< 500	–	–	–	–
COc1cc(O[C@H]2CC[C@H](NC(=O)c3ccc(N4CCC5(CCN(c6ccc(C7=N[C@@H](C)c8nnc(C)n8-c8sc(C)c(C)c87)cc6)CC5(F)F)C4)nn3)CC2)ccc1C#N (some centres unmarked) [Compound I-116]	–	< 500	–	< 500	< 500	–	–
COc1cc(O[C@H]2CC[C@H](NC(=O)c3ccc(N4CC(F)(F)C5(CCN(c6ccc(C7=N[C@@H](C)c8nnc(C)n8-c8sc(C)c(C)c87)cc6)C5)C4)nn3)CC2)ccc1C#N (some centres unmarked) [Compound I-117]	< 500	< 500	< 500	–	–	–	–
COc1cc(O[C@H]2CC[C@H](NC(=O)c3ccc(N4C[C@]5(C)CN(c6ccc(C7=N[C@@H](Cc8ncco8)c8nnc(C)n8-c8sc(C)c(C)c87)cc6)C[C@]5(C)C4)nn3)CC2)ccc1C#N [Compound I-118]	< 500	< 500	< 500	–	–	–	–
COc1cc(O[C@H]2CC[C@H](NC(=O)c3ccc(N4C[C@]5(F)CN(c6ccc(C7=N[C@@H](Cc8ncco8)c8nnc(C)n8-c8sc(C)c(C)c87)cc6)C[C@]5(F)C4)nn3)CC2)ccc1C#N [Compound I-119]	< 500	< 500	< 500	–	–	–	–
COc1cc(O[C@H]2CC[C@H](NC(=O)c3ccc(N4CC(C)(C)C5(CCN(c6ccc(C7=N[C@@H](C)c8nnc(C)n8-c8sc(C)c(C)c87)cc6)CC5)C4)nn3)CC2)ccc1C#N [Compound I-120]	< 500	< 500	< 500	–	–	–	–
COc1cc(O[C@H]2CC[C@H](NC(=O)c3ccc(N4CCC5(CCC(c6ccc(C7=N[C@@H](C)c8nnc(C)n8-c8sc(C)c(C)c87)cc6C(C)C)CC5)C4)nn3)CC2)ccc1C#N (some centres unmarked) [Compound I-121]	> 3000	< 500	< 500	–	–	–	–
COc1cc(O[C@H]2CC[C@H](NC(=O)c3ccc(N4CCC5(CCC(c6ccc(C7=N[C@@H](C)c8nnc(C)n8-c8sc(C)c(C)c87)cc6C(C)C)CC5)C4)nn3)CC2)ccc1C#N (some centres unmarked) [Compound I-122]	–	< 500	–	1500 to 3000	500 to 1500	–	–
COc1cc(O[C@H]2CC[C@H](NC(=O)c3ccc(N4CC5(CC(C#Cc6ccc(C7=N[C@@H](Cc8ncco8)c8nnc(C)n8-c8sc(C)c(C)c87)cc6)C5)C4)nn3)CC2)ccc1C#N [Compound I-124, N-[(1r,4r)-4-(4-cyano-3-methoxy-phenoxy)cyclohexyl]-6-[6-[2-[4-[(9S)-4,5,13-trimethyl-9-(oxazol-2-ylmethyl)-3-thia-1,8,11,12-tetrazatricyclo[8.3.0.0^2,6]trideca-2 (6),4,7,10,12-pentaen-7-yl]phenyl]ethynyl]-2-azaspiro[3.3]heptan-2-yl]pyridazine-3-carboxamide]	< 500	< 500	< 500	–	–	1	1
COc1cc(O[C@H]2CC[C@H](NC(=O)c3ccc(N4CCC5(CC4)CC(Cc4ccc(C6=N[C@@H](Cc7ncco7)c7nnc(C)n7-c7sc(C)c(C)c76)c(F)c4)C5)nn3)CC2)ccc1C#N [Compound I-125, N-[4-(4-cyano-3-methoxy-phenoxy)cyclohexyl]-6-[2-[[3-fluoro-4-[(9S)-4,5,13-trimethyl-9-(oxazol-2-ylmethyl)-3-thia-1,8,11,12-tetrazatricyclo[8.3.0.0^2,6]trideca-2 (6),4,7,10,12-pentaen-7-yl]phenyl]methyl]-7-azaspiro[3.5]nonan-7-yl]pyridazine-3-carboxamide]	< 500	< 500	< 500	–	–	–	–
COc1cc(O[C@H]2CC[C@H](NC(=O)c3ccc(N4CCC5(CCN(c6ccc(C7=NC(Cc8ncco8)c8nnc(C)n8-c8sc(C)c(C)c87)cc6C(F)(F)F)CC5)C4)nn3)CC2)ccc1C#N (some centres unmarked) [Compound I-126]	–	< 500	–	> 3000	> 3000	–	–
COc1cc(O[C@H]2CC[C@H](NC(=O)c3ccc(N4CCC5(CC4)CC(Oc4ccc(C6=N[C@@H](Cc7ncco7)c7nnc(C)n7-c7sc(C)c(C)c76)c(F)c4)C5)nn3)CC2)ccc1C#N [Compound I-128, N-[4-(4-cyano-3-methoxy-phenoxy)cyclohexyl]-6-[2-[3-fluoro-4-[(9S)-4,5,13-trimethyl-9-(oxazol-2-ylmethyl)-3-thia-1,8,11,12-tetrazatricyclo[8.3.0.0^2,6]trideca-2 (6),4,7,10,12-pentaen-7-yl]phenoxy]-7-azaspiro[3.5]nonan-7-yl]pyridazine-3-carboxamide]	< 500	< 500	< 500	–	–	–	–
COc1cc(O[C@H]2CC[C@H](NC(=O)c3ccc(N4CCC5(CCN(c6ccc(C7=NC(Cc8ncco8)c8nnc(C)n8-c8sc(C)c(C)c87)cc6C(F)(F)F)CC5)C4)nn3)CC2)ccc1C#N (some centres unmarked) [Compound I-129]	–	< 500	–	< 500	< 500	–	–
COc1cc(O[C@H]2CC[C@H](NC(=O)c3ccc(N4CCC5(CC4)CC(Oc4ccc(C6=N[C@@H](Cc7ncco7)c7nnc(C)n7-c7sc(C)c(C)c76)cc4F)C5)nn3)CC2)ccc1C#N [Compound I-133]	< 500	< 500	< 500	–	–	–	–
COc1cc(O[C@H]2CC[C@H](NC(=O)c3ccc(N4CCC5(CCN(c6ccc(C7=NC(Cc8ncco8)c8nnc(C)n8-c8sc(C)c(C)c87)c(C(F)(F)F)c6)CC5)C4)nn3)CC2)ccc1C#N (some centres unmarked) [Compound I-136]	> 3000	< 500	–	–	> 3000	–	–
COc1cc(O[C@H]2CC[C@H](NC(=O)c3ccc(N4CCC5(CCN(c6ccc(C7=NC(Cc8ncco8)c8nnc(C)n8-c8sc(C)c(C)c87)c(C(F)(F)F)c6)CC5)C4)nn3)CC2)ccc1C#N (some centres unmarked) [Compound I-137]	–	< 500	–	> 3000	< 500	–	–
COc1cc(O[C@H]2C(C)(C)[C@H](NC(=O)c3cnc(N4CCC5(CC4)CC(Cc4ccc(C6=N[C@@H](Cc7ncco7)c7nnc(C)n7-c7sc(C)c(C)c76)c(F)c4)C5)nc3)C2(C)C)ccc1C#N [II-13]	< 500	< 500	< 500	–	–	–	–
COc1cc(O[C@H]2C(C)(C)[C@H](NC(=O)c3cnc(N4CCC5(CC4)CC(Oc4ccc(C6=N[C@H](Cc7ncco7)c7nnc(C)n7-c7sc(C)c(C)c76)cc4)C5)nc3)C2(C)C)ccc1C#N [II-14]	> 3000	< 500	> 3000	–	–	–	–
